Measured values from patent US11453660B2, “Androgen receptor and glucocorticoid receptor modulators” (ONCOSTELLAE, S.L., priority 2017, dated 2022).

Tests used:
human androgen receptor = target: T1, human androgen receptor (Homo sapiens, UniProt P10275, T878A); assay: Human Androgen Receptor Binding (radioligand binding, LnCap prostate cancer cell line); conditions: LnCap cells, displacement of [^3H]-methyltrienolone, 2 hours at 37° C.; read-out: AR LNCaP
T1 construct: endogenously expressed human androgen receptor using the LnCap prostate cancer cell line; endogenous in cells; host or cells: LNCaP prostate cancer cell line (whole cells)
T1 sequence (P10275 1-920 T878A): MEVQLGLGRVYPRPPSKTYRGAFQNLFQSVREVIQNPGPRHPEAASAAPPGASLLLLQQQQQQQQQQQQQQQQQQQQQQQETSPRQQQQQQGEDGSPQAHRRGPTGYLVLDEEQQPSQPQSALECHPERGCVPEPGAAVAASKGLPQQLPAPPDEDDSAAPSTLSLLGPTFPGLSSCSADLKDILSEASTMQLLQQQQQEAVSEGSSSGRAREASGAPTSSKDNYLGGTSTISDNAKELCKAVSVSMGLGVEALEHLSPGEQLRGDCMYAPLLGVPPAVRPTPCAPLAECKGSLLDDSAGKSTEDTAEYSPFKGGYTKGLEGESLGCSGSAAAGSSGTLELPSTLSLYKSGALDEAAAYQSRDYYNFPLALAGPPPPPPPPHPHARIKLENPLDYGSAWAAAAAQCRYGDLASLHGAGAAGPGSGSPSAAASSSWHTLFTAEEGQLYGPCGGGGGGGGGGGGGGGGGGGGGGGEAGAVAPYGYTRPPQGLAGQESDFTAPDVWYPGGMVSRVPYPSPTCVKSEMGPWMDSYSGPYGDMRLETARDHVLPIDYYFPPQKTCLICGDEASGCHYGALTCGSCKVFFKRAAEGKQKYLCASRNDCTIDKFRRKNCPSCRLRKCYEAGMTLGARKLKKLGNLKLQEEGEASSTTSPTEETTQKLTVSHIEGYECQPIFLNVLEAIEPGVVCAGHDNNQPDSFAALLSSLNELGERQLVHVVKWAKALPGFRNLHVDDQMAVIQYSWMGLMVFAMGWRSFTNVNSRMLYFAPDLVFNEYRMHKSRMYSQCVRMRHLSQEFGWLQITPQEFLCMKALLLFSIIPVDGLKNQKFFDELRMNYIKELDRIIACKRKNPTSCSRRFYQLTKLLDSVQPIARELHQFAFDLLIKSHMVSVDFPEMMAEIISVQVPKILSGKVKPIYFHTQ
Procedure: Human Androgen Receptor Binding
Radioligand binding studies were carried out on endogenously expressed human androgen receptor using the LnCap prostate cancer cell line. The test is based on measuring radioactively labelled AR ligand [^3H]-methyltrienolone that gets displaced by increasing concentrations of test compound. The test is performed in 96-well plates (Falcon, #353072). Positive and negative controls are also required in each analyzed plate to evaluate the total and non-specific binding binding of the radioligand to the receptor. Cells (60000 per well) were incubated for 24 hours before executing the experiment at 37° C. and in a 5% CO2 atmosphere. Medium was replaced by assay buffer (RPMI-640 (ATCC #30-2001) supplemented with 0.1% bovine serum albumin (Sigma #8806-56) and Triamcinolone acetonide (Sigma #T6501)). The compounds at the desired concentrations and [^3H]methyltrienolone (Perkin Elmer #NET590) were added to the wells.
In order to obtain a dose-response curve and calculate the potency of inhibition (expressed as IC50) for AR, a series of 1:10 dilutions in test in 1× buffer from 10 μM to 0.1 nM for each compound was carried out.
Cells were incubated for 2 hours at 37° C. in a 5% CO2 atmosphere and then washed twice with ice-cold HBSS. Then cells were lysed with solubilization buffer (Hank's Balanced Salt Solution (HBSS, Sigma #H6648), 0.5% Sodium dodecyl sulfate 0.5% (SDS, Sigma #L7390-500G, Lote: 078K0102) and 20% Glycerol (Sigma Aldrich, #G2025) for 30 minutes at RT. 75 μL aliquots were taken from each well and transferred to a 96-well flexiplate (Perkin Elmer #1450-401) and mixed with 100 μL of scintillation cocktail (Optiphase supermix, PerkinElmer, #1200-439). Plates are shaken for 60 minutes and radioactivity was measured in a beta scintillation counter (Microbeta Trilux, Perkin Elmer).

[1] = target: T2, Human Glucocorticoid Receptor (Homo sapiens, UniProt P04150); assay: Competition Binding in IM-9 Human Glucocorticoid Receptor (GR IM-9); conditions: cytosol from IM-9 cell line, 1.5 nM [3H]-Dexamethasone, 4° C. for 6 hours
T2 construct: endogenous in cells; host or cells: cytosol from IM-9 cell line
T2 sequence (P04150 1-777): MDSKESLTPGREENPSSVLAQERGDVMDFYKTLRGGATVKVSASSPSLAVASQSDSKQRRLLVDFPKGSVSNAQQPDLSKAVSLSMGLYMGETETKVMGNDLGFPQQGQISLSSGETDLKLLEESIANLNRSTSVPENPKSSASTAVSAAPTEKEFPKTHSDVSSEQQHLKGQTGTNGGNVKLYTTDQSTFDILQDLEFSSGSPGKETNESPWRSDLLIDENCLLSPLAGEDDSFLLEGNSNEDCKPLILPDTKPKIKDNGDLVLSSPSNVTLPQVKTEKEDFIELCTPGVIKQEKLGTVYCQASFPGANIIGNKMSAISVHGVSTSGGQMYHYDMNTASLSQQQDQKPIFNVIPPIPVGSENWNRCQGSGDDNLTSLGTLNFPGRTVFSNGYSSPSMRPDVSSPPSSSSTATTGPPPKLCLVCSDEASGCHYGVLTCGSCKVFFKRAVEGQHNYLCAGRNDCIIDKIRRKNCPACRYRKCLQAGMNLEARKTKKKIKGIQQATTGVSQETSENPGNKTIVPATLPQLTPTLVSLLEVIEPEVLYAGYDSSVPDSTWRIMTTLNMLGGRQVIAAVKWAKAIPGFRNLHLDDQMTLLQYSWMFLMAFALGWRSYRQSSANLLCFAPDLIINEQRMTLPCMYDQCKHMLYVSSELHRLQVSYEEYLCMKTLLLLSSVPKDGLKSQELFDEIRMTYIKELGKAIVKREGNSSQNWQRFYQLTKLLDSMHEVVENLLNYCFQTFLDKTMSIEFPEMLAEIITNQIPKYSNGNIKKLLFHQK
Procedure: Competition Binding in IM-9 Human Glucocorticoid Receptor (GR IM-9)
Glucocorticoid receptor competition binding assays were carried out in a polypropilene 96-well plate. In each well was incubated 100 μg of cytosol from IM-9 cell line, 1.5 nM [3H]-Dexamethasone (71 Ci/mmol, 1 mCi/ml, Perkin Elmer NET1192001MC) and compounds studied and standard. Non-specific binding was determined in the presence of Triamcinolone 10 μM (Sigma Aldrich T6376).
The reaction mixture (Vt: 200 μl/well) was incubated at 4° C. for 6 hours, 180 μL was transferred to GF/B 96-well plate (Millipore, Madrid, Spain) pretreated with 0.5% of PEI and treated with binding buffer (TES 10 mM, sodium molybdate 10 mM, EDTA 1 mM, pH 7.4, 2-mercaptoethanol 20 mM, Glycerol 10%) after was filtered and washed six times with 250 μl wash buffer (TES 10 mM, sodium molybdate 10 mM, EDTA 1 mM, pH 7.4, 2-mercaptoethanol 20 mM Glycerol 10%), before measuring in a microplate beta scintillation counter (Microbeta Trilux, PerkinElmer, Madrid, Spain).

Row | Structure (SMILES) | IC50 (human androgen receptor) [nM] | IC50 [1] [nM]
1 | CC(=O)C1=C(C)NC(C)=C(C(=O)OCC2CC2)C1c1csc2ccc(Cl)cc12 (stereo not drawn) [Example C32, Cyclopropylmethyl 5-acetyl-4-(5-chlorobenzo[b]thiophen-3-yl)-2,6-dimethyl-1,4-dihydropyridine-3-carboxylate] | ≥ 1000 | 
2 | CC(=O)C1=C(C)NC(C)=C(C(=O)OCC2CCCCC2)C1c1csc2ncccc12 (stereo not drawn) [Example C34, Cyclohexylmethyl 5-acetyl-2,6-dimethyl-4-(thieno[2,3-b]pyridin-3-yl)-1,4-dihydropyridine-3-carboxylate] | ≥ 1000 | < 100
3 | CC(=O)C1=C(C)NC(C)=C(C(=O)OC2CCCC2)C1c1csc2ncccc12 (stereo not drawn) [Example C37, Cyclopentyl 5-acetyl-2,6-dimethyl-4-(thieno[2,3-b]pyridin-3-yl)-1,4-dihydropyridine-3-carboxylate] | < 100 | < 100
4 | COC(=O)C1=C(C(F)(F)F)NC(C)=C(C(C)=O)C1c1csc2ccc(Cl)cc12 (stereo not drawn) [Example C38, Methyl 5-acetyl-4-(5-chlorobenzo[b]thiophen-3-yl)-6-methyl-2-(trifluoromethyl)-1,4-dihydropyridine-3-carboxylate] | < 100 | 
5 | CC(=O)C1=C(C)NC(C(F)(F)F)=C(C(=O)OCc2ccccc2)C1c1csc2ccccc12 (stereo not drawn) [Example C45, Benzyl 5-acetyl-4-(benzo[b]thiophen-3-yl)-6-methyl-2-(trifluoromethyl)-1,4-dihydropyridine-3-carboxylate] | ≥ 1000 | 
6 | CC(=O)C1=C(C)NC(C)=C(C(=O)OCc2ccc(F)cc2)C1c1csc2ncccc12 (stereo not drawn) [Example C47, 4-Fluorobenzyl 5-acetyl-2,6-dimethyl-4-(thieno[2,3-b]pyridin-3-yl)-1,4-dihydropyridine-3-carboxylate] | 100 to 1000 | < 100
7 | COC(=O)C1=C(C(F)(F)F)NC(C)=C(C(C)=O)C1c1csc2ncccc12 (stereo not drawn) [Example C53, Methyl 5-acetyl-6-methyl-4-(thieno[2,3-b]pyridin-3-yl)-2-(trifluoromethyl)-1,4-dihydropyridine-3-carboxylate] | < 100 | 
8 | COC(=O)C1=C(C2CC2)NC(C)=C(C(C)=O)C1c1csc2ccc(Cl)cc12 (stereo not drawn) [Example J25, Methyl 5-acetyl-4-(5-chlorobenzo[b]thiophen-3-yl)-2-cyclopropyl-6-methyl-1,4-dihydropyridine-3-carboxylate] | 100 to 1000 | 
9 | COC(=O)C1=C(C2CC2)NC(C2CC2)=C(C(=O)OC)C1c1csc2ccc(Cl)cc12 [Example J25-a, Dimethyl 4-(5-chlorobenzo[b]thiophen-3-yl)-2,6-dicyclopropyl-1,4-dihydropyridine-3,5-dicarboxylate] |  | 100 to 1000
10 | COC(=O)C1=C(C2CC2)NC(C)=C(C(C)=O)C1c1csc2c(C(=O)OC)cccc12 (stereo not drawn) [Example J29, Methyl 5-acetyl-2-cyclopropyl-4-(7-(methoxycarbonyl)benzo[b]thiophen-3-yl)-6-methyl-1,4-dihydropyridine-3-carboxylate] | 100 to 1000 | 
11 | COC(=O)C1=C(C2CC2)NC(C)=C(C(C)=O)C1c1csc2c(C(=O)O)cccc12 (stereo not drawn) [Example J30, 3-(3-Acetyl-6-cyclopropyl-5-(methoxycarbonyl)-2-methyl-1,4-dihydropyridin-4-yl)benzo[b]thiophene-7-carboxylicacid] | ≥ 1000 | 
12 | CC(=O)C1=C(C)NC(C2CC2)=C(C(=O)OCc2ccncc2)C1c1csc2ncccc12 (stereo not drawn) [Example J36, Pyridin-4-ylmethyl 5-acetyl-2-cyclopropyl-6-methyl-4-(thieno[2,3-b]pyridin-3-yl)-1,4-dihydropyridine-3-carboxylate] |  | ≥ 1000
13 | CC(=O)C1=C(C)NC(C)=C(C(C)=O)C1c1csc2c(C#N)cccc12 [Example J40, 3-(3,5-diacetyl-2,6-dimethyl-1,4-dihydropyridin-4-yl)benzo[b]thiophene-7-carbonitrile] | ≥ 1000 | 
14 | O=C(OCc1ccc(F)cc1)C1=C(C2CC2)NC(C2CC2)=C(C(=O)OCc2ccc(F)cc2)C1c1csc2ncccc12 [Example J42-a, bis(4-fluorobenzyl) 2,6-dicyclopropyl-4-(thieno[2,3-b]pyridin-3-yl)-1,4-dihydropyridine-3,5-dicarboxylate] |  | 100 to 1000
15 | CC(=O)C1=C(C)NC(C)=C(C(=O)OCc2ccnc(-c3ccncc3)c2)C1c1csc2ncccc12 (stereo not drawn) [Example L12, [2,4′-bipyridin]-4-ylmethyl 5-acetyl-2,6-dimethyl-4-(thieno[2,3-b]pyridin-3-yl)-1,4-dihydropyridine-3-carboxylate] |  | 100 to 1000
16 | COC(=O)C1=C(C2CC2)NC(C)=C(C(C)=O)C1c1csc2c(-c3ccncc3)cccc12 (stereo not drawn) [Example L13, Methyl 5-acetyl-2-cyclopropyl-6-methyl-4-(7-(pyridin-4-yl)benzo[b]thiophen-3-yl)-1,4-dihydropyridine-3-carboxylate] |  | 100 to 1000
17 | COC(=O)C1=C(C2CC2)NC(C)=C(C(C)=O)C1c1csc2c(C3CC3)cccc12 (stereo not drawn) [Example L14, Methyl 5-acetyl-2-cyclopropyl-4-(7-cyclopropylbenzo[b]thiophen-3-yl)-6-methyl-1,4-dihydropyridine-3-carboxylate] |  | ≥ 1000
18 | COC(=O)C1=C(C2CC2)NC(C)=C(C(C)=O)C1c1csc2c(-c3ccccc3)cccc12 (stereo not drawn) [Example N1, Methyl 5-acetyl-2-cyclopropyl-6-methyl-4-(7-phenylbenzo[b]thiophen-3-yl)-1,4-dihydropyridine-3-carboxylate] |  | ≥ 1000
